# Patent US6462021B1, “Use of low molecular weight thrombin inhibitor” (AstraZeneca AB, priority 2000, dated 2002)
# What was measured:
# [1] = test system: patients with NVAF; experiment: Clinical dose-guiding study: stroke/TIA events; format: in vivo, human
# Method: (§1) The tolerability of three different doses of X (20, 40, 60 mg p.o. b.i.d.) was compared with warfarin (aiming for an international normalisation ratio (INR) of 2 to 3) over 3 months' treatment in NVAF patients with moderately to high increased risk for stroke or systemic embolic events.
# (§2) This was a multicentre, multinational, randomized, parallel group, dose-guiding study to compare the safety and tolerabilty of X with warfarin in stroke prophylaxis in patients with NVAF.
# (§3) Patients were split into four groups: one group receiving 20 mg of X b.i.d, one given 40 (2×20) mg of X b.i.d, and one 60 (3×20) mg of X b.i.d. The fourth group received warfarin (open label, INR aiming for 2.0 to 3.0). All X medication was given double blind (i.e. neither doctor nor patient knew what tablet strength of X was given).
# (§4) The duration of treatment was 12 weeks. […] The 40 mg b.i.d. dose was later reduced to 36 mg b.i.d. of X.
# [2] = test system: patients with NVAF; experiment: Ongoing open label follow-up trials, 1 year on; format: in vivo
# Description: The duration of treatment was 12 weeks.
# [3] = test system: patients with NVAF; experiment: Clinical dose-guiding study: safety and tolerability (discontinuations, bleeding, adverse events)
# Method: as §1, §2, §3, §4
# [4] = test system: patients with NVAF; experiment: Clinical dose-guiding study: warfarin management (INR by visit); format: in vivo, human
# [5] = NVAF patients, 20, 40, 60 mg p.o. b.i.d.
# Method: as §1, §3
# [6] = warfarin group, 40 treatment years
# [7] = X group, at 60 mg b.i.d., 12 weeks
# [8] = X 36 mg b.i.d., 120 treatment years
# [9] = X Dose 140 mg (so in the source) b.i.d., 12 weeks
smiles,measurement,setting,value
"CC(=O)CC(c1ccccc1)c1c(O)c2ccccc2oc1=O (centres unmarked) [Warfarin, warfarin]",TIAs reported,"[1]; warfarin group, 12 weeks",two
same,Stroke/TIA event of individual patient,"[1]; warfarin group, 12 weeks, one line per patient (Pat. 120, 153)",TIA
same,TIAs,[2]; [6],2
same,fatal strokes,[2]; [6],2
same,major life-threatening bleeds,[2]; [6],3
same,"Bleeding Events, category Major","[3]; warfarin group, 12 weeks",1
same,"Bleeding Events, category Minor","[3]; warfarin group, 12 weeks",2
same,"Bleeding Events, category Multiple Minor","[3]; warfarin group, 12 weeks",1
same,"Bleeding Events, category None (patients)","[3]; warfarin group, 12 weeks",60
same,"Bleeding Events, category Unspecified","[3]; warfarin group, 12 weeks",3
same,"Number of Patients discontinued, reason Adverse Event","[3]; warfarin group, 12 weeks",4
same,"Number of Patients discontinued, reason Calc. CrCl < 40 mL/min","[3]; warfarin group, 12 weeks",5
same,"Number of Patients discontinued, reason Other","[3]; warfarin group, 12 weeks",3
same,"Number of Patients discontinued, reason Withdrawn Consent","[3]; warfarin group, 12 weeks",1
same,"Number of Patients, Total Discontinued","[3]; warfarin group, 12 weeks",13
same,"Bleeding Events, category Major","[3]; warfarin group, 12 weeks, listed as warfarin",only major bleed (genital tract) and one
same,Prematurely discont. (percent of patients),"[3]; warfarin, INR aim 2.0-3.0, 12 weeks",(19%)
same,Prematurely discont. (number of patients),"[3]; warfarin, INR aim 2.0-3.0, 12 weeks, 67 randomised",13
same,Patients in INR Range 1.0-1.9 (number),"[4]; Visit 1, Week 0, N 62",34
same,Patients in INR Range 1.0-1.9 (percent),"[4]; Visit 1, Week 0, N 62",55%
same,Patients in INR Range 2.0-3.0 (number),"[4]; Visit 1, Week 0, N 62",21
same,Patients in INR Range 2.0-3.0 (percent),"[4]; Visit 1, Week 0, N 62",34%
same,Patients in INR Range >3.0 (number),"[4]; Visit 1, Week 0, N 62",7
same,Patients in INR Range >3.0 (percent),"[4]; Visit 1, Week 0, N 62",11%
same,Patients in INR Range 1.0-1.9 (number),"[4]; Visit 3, Week 1, N 59",22
same,Patients in INR Range 1.0-1.9 (percent),"[4]; Visit 3, Week 1, N 59",37%
same,Patients in INR Range 2.0-3.0 (number),"[4]; Visit 3, Week 1, N 59",25
same,Patients in INR Range 2.0-3.0 (percent),"[4]; Visit 3, Week 1, N 59",42%
same,Patients in INR Range >3.0 (number),"[4]; Visit 3, Week 1, N 59",12
same,Patients in INR Range >3.0 (percent),"[4]; Visit 3, Week 1, N 59",20%
same,Patients in INR Range 1.0-1.9 (number),"[4]; Visit 4, Week 2, N 54",15
same,Patients in INR Range 1.0-1.9 (percent),"[4]; Visit 4, Week 2, N 54",28%
same,Patients in INR Range 2.0-3.0 (number),"[4]; Visit 4, Week 2, N 54",26
same,Patients in INR Range 2.0-3.0 (percent),"[4]; Visit 4, Week 2, N 54",48%
same,Patients in INR Range >3.0 (number),"[4]; Visit 4, Week 2, N 54",13
same,Patients in INR Range >3.0 (percent),"[4]; Visit 4, Week 2, N 54",24%
same,Patients in INR Range 1.0-1.9 (number),"[4]; Visit 5, Week 4, N 51",17
same,Patients in INR Range 1.0-1.9 (percent),"[4]; Visit 5, Week 4, N 51",33%
same,Patients in INR Range 2.0-3.0 (number),"[4]; Visit 5, Week 4, N 51",22
same,Patients in INR Range 2.0-3.0 (percent),"[4]; Visit 5, Week 4, N 51",43%
same,Patients in INR Range >3.0 (number),"[4]; Visit 5, Week 4, N 51",12
same,Patients in INR Range >3.0 (percent),"[4]; Visit 5, Week 4, N 51",24%
same,Patients in INR Range 1.0-1.9 (number),"[4]; Visit 6, Week 8, N 49",15
same,Patients in INR Range 1.0-1.9 (percent),"[4]; Visit 6, Week 8, N 49",31%
same,Patients in INR Range 2.0-3.0 (number),"[4]; Visit 6, Week 8, N 49",25
same,Patients in INR Range 2.0-3.0 (percent),"[4]; Visit 6, Week 8, N 49",51%
same,Patients in INR Range >3.0 (number),"[4]; Visit 6, Week 8, N 49",9
same,Patients in INR Range >3.0 (percent),"[4]; Visit 6, Week 8, N 49",18%
same,Patients in INR Range 1.0-1.9 (number),"[4]; Visit 7, Week 12, N 58",18
same,Patients in INR Range 1.0-1.9 (percent),"[4]; Visit 7, Week 12, N 58",31%
same,Patients in INR Range 2.0-3.0 (number),"[4]; Visit 7, Week 12, N 58",33
same,Patients in INR Range 2.0-3.0 (percent),"[4]; Visit 7, Week 12, N 58",57%
same,Patients in INR Range >3.0 (number),"[4]; Visit 7, Week 12, N 58",7
same,Patients in INR Range >3.0 (percent),"[4]; Visit 7, Week 12, N 58",12%
"CCOC(=O)CN[C@@H](C(=O)N1CC[C@H]1C(=O)NCc1ccc(/C(N)=N\O)cc1)C1CCCCC1 [X, EtO2C—CH2-(R)Cgl-Aze-Pab-OH]",Stroke/TIA event of individual patient,"[1]; X 60 mg b.i.d. group, 12 weeks, one line per patient (Pat. 121, 309)",Ischemic stroke and TIA
same,stroke rate,"[1]; X group, all doses combined, estimated 40 patient years of observation",2.5%
same,TIA reported,[1]; [7],one
same,ischemic stroke reported,[1]; [7],one
same,"pharmacokinetics, dose dependence",[5],dose proportional
same,TIAs,[2]; [8],2
same,major bleeds,[2]; [8],no major bleeds
same,non-fatal strokes,[2]; [8],2
same,Prematurely discont. (percent of patients),"[3]; X 20 mg p.o. b.i.d., 12 weeks",(15%)
same,Prematurely discont. (number of patients),"[3]; X 20 mg p.o. b.i.d., 12 weeks, 66 randomised",10
same,Prematurely discont. (percent of patients),"[3]; X 40 mg p.o. b.i.d., 12 weeks",(19%)
same,Prematurely discont. (number of patients),"[3]; X 40 mg p.o. b.i.d., 12 weeks, 64 randomised",12
same,onset pattern of bleeding,"[3]; X 60 mg b.i.d., similar pattern to warfarin",occurs early in the treatment period
same,Prematurely discont. (percent of patients),"[3]; X 60 mg p.o. b.i.d., 12 weeks",(20%)
same,Prematurely discont. (number of patients),"[3]; X 60 mg p.o. b.i.d., 12 weeks, 60 randomised",12
same,"Bleeding Events, category Major","[3]; X Dose 20 mg b.i.d., 12 weeks",0
same,"Bleeding Events, category Minor","[3]; X Dose 20 mg b.i.d., 12 weeks",1
same,"Bleeding Events, category Multiple Minor","[3]; X Dose 20 mg b.i.d., 12 weeks",2
same,"Bleeding Events, category None (patients)","[3]; X Dose 20 mg b.i.d., 12 weeks",61
same,"Bleeding Events, category Unspecified","[3]; X Dose 20 mg b.i.d., 12 weeks",2
same,"Number of Patients discontinued, reason Adverse Event","[3]; X Dose 20 mg b.i.d., 12 weeks",6
same,"Number of Patients discontinued, reason Calc. CrCl < 40 mL/min","[3]; X Dose 20 mg b.i.d., 12 weeks",4
same,"Number of Patients discontinued, reason Other","[3]; X Dose 20 mg b.i.d., 12 weeks",0
same,"Number of Patients, Total Discontinued","[3]; X Dose 20 mg b.i.d., 12 weeks",10
same,"Bleeding Events, category Major","[3]; X Dose 40 mg b.i.d., 12 weeks",0
same,"Bleeding Events, category Minor","[3]; X Dose 40 mg b.i.d., 12 weeks",0
same,"Bleeding Events, category Multiple Minor","[3]; X Dose 40 mg b.i.d., 12 weeks",3
same,"Bleeding Events, category None (patients)","[3]; X Dose 40 mg b.i.d., 12 weeks",57
same,"Bleeding Events, category Unspecified","[3]; X Dose 40 mg b.i.d., 12 weeks",2
same,"Bleeding Events, category Major","[3]; X Dose 60 mg b.i.d., 12 weeks",0
same,"Bleeding Events, category Minor","[3]; X Dose 60 mg b.i.d., 12 weeks",3
same,"Bleeding Events, category Multiple Minor","[3]; X Dose 60 mg b.i.d., 12 weeks",0
same,"Bleeding Events, category None (patients)","[3]; X Dose 60 mg b.i.d., 12 weeks",52
same,"Bleeding Events, category Unspecified","[3]; X Dose 60 mg b.i.d., 12 weeks",4
same,"Number of Patients discontinued, reason Adverse Event","[3]; X Dose 60 mg b.i.d., 12 weeks",5
same,"Number of Patients discontinued, reason Calc. CrCl < 40 mL/min","[3]; X Dose 60 mg b.i.d., 12 weeks",4
same,"Number of Patients discontinued, reason Other","[3]; X Dose 60 mg b.i.d., 12 weeks",1
same,"Number of Patients, Total Discontinued","[3]; X Dose 60 mg b.i.d., 12 weeks",12
same,"Number of Patients discontinued, reason Adverse Event",[3]; [9],3
same,"Number of Patients discontinued, reason Calc. CrCl < 40 mL/min",[3]; [9],5
same,"Number of Patients discontinued, reason Other",[3]; [9],1
same,"Number of Patients, Total Discontinued",[3]; [9],12
same,liver enzyme levels,[3]; a few patients treated with X,asymptomatic increases
same,tolerability,[3]; doses of up to 60 mg b.i.d. over 3 months,well tolerated
